Test: xn = mol fraction of the nth substance listed
Conditions: 100 kPa

CN(C)C=O + CC[n+]1ccn(C)c1.O=S(=O)([O-])C(F)(F)F
x1 = 1
Conditions | speed of sound [m/s] | viscosity [mPa·s]
303.15 K | 1449.1 | 0.77
308.15 K | 1435.2 | 0.72
313.15 K | 1421.2 | 0.69
318.15 K | 1407.2 | 0.65
323.15 K | 1393.6 | 0.62

OCCO + CC[n+]1ccn(C)c1.O=S(=O)([O-])C(F)(F)F
x1 = 1
Conditions | speed of sound [m/s] | viscosity [mPa·s]
298.15 K | 1655 | 16.39
303.15 K | 1643.2 | 13.49
313.15 K | 1619.7 | 9.34
323.15 K | 1596.1 | 6.75

CC[n+]1ccn(C)c1.O=S(=O)([O-])C(F)(F)F + CN(C)C=O
Conditions | speed of sound [m/s] | viscosity [mPa·s]
298.15 K, x2 = 0.0917 | 1438.8 | 36.96
298.15 K, x2 = 0.2995 | 1444 | 20.94
298.15 K, x2 = 0.406 | 1446 | 14.56
298.15 K, x2 = 0.5094 | 1448.4 | 8.77
298.15 K, x2 = 0.5976 | 1450.6 | 6.17
298.15 K, x2 = 0.6947 | 1453.4 | 3.45
298.15 K, x2 = 0.7981 | 1457.5 | 2.59
298.15 K, x2 = 0.8957 | 1460.7 | 1.54
303.15 K, x2 = 0.0917 | 1427.6 | 31.13
303.15 K, x2 = 0.1933 | 1428.8 | 24.16
303.15 K, x2 = 0.2995 | 1430.7 | 17.86
303.15 K, x2 = 0.5094 | 1434.6 | 7.75
303.15 K, x2 = 0.5976 | 1436.5 | 5.52
303.15 K, x2 = 0.6947 | 1439.7 | 3.21
303.15 K, x2 = 0.7981 | 1443.5 | 2.38
303.15 K, x2 = 0.8957 | 1446.8 | 1.44
308.15 K, x2 = 0.0917 | 1416 | 26.42
308.15 K, x2 = 0.1933 | 1417.8 | 20.62
308.15 K, x2 = 0.2995 | 1419.1 | 15.36
308.15 K, x2 = 0.5094 | 1422.7 | 6.9
308.15 K, x2 = 0.5976 | 1424.4 | 4.98
308.15 K, x2 = 0.6947 | 1426.9 | 2.99
308.15 K, x2 = 0.7981 | 1429.7 | 2.19
308.15 K, x2 = 0.8957 | 1432.8 | 1.34
313.15 K, x2 = 0.0917 | 1404.6 | 22.67
313.15 K, x2 = 0.1933 | 1406.5 | 17.78
313.15 K, x2 = 0.2995 | 1408 | 13.34
313.15 K, x2 = 0.406 | 1409.7 | 9.57
313.15 K, x2 = 0.5094 | 1411 | 6.18
313.15 K, x2 = 0.6947 | 1414.6 | 2.78
313.15 K, x2 = 0.8957 | 1419.2 | 1.25
318.15 K, x2 = 0.406 | 1398.7 | 8.46
318.15 K, x2 = 0.5094 | 1399.7 | 5.57
318.15 K, x2 = 0.5976 | 1400.4 | 4.1
318.15 K, x2 = 0.7981 | 1403.5 | 1.88
318.15 K, x2 = 0.8957 | 1405.3 | 1.18
323.15 K, x2 = 0.0917 | 1382.3 | 17.12
323.15 K, x2 = 0.1933 | 1384 | 13.56
323.15 K, x2 = 0.2995 | 1386 | 10.31
323.15 K, x2 = 0.406 | 1387.4 | 7.53
323.15 K, x2 = 0.5094 | 1388 | 5.05
323.15 K, x2 = 0.5976 | 1388.9 | 3.75
323.15 K, x2 = 0.7981 | 1390.6 | 1.75
323.15 K, x2 = 0.8957 | 1392.1 | 1.11

CC[n+]1ccn(C)c1.O=S(=O)([O-])C(F)(F)F + OCCO
Conditions | speed of sound [m/s] | viscosity [mPa·s]
298.15 K, x2 = 0.0943 | 1446 | 36.77
298.15 K, x2 = 0.2021 | 1453.2 | 29.22
298.15 K, x2 = 0.2937 | 1457.1 | 24.13
298.15 K, x2 = 0.408 | 1464.6 | 20.68
298.15 K, x2 = 0.5013 | 1473.4 | 18.72
298.15 K, x2 = 0.6019 | 1488.5 | 17.52
298.15 K, x2 = 0.6917 | 1510.9 | 16.97
298.15 K, x2 = 0.8964 | 1586.6 | 16.51
303.15 K, x2 = 0.2021 | 1442.1 | 24.77
303.15 K, x2 = 0.2937 | 1445.9 | 20.6
303.15 K, x2 = 0.408 | 1453.3 | 17.93
303.15 K, x2 = 0.5013 | 1462.1 | 16.38
303.15 K, x2 = 0.6019 | 1477.2 | 15.41
303.15 K, x2 = 0.6917 | 1499.5 | 14.89
303.15 K, x2 = 0.798 | 1532.6 | 14.39
303.15 K, x2 = 0.8964 | 1575.1 | 13.74
308.15 K, x2 = 0.0943 | 1423.9 | 26.23
308.15 K, x2 = 0.2021 | 1430.9 | 21.17
308.15 K, x2 = 0.2937 | 1434.8 | 17.74
308.15 K, x2 = 0.408 | 1442.2 | 15.7
308.15 K, x2 = 0.5013 | 1451 | 14.49
308.15 K, x2 = 0.6917 | 1488.2 | 13.23
308.15 K, x2 = 0.798 | 1521.5 | 12.63
313.15 K, x2 = 0.0943 | 1412.8 | 22.47
313.15 K, x2 = 0.2021 | 1419.9 | 18.26
313.15 K, x2 = 0.2937 | 1423.8 | 15.41
313.15 K, x2 = 0.5013 | 1439.9 | 12.93
313.15 K, x2 = 0.6019 | 1454.8 | 12.31
313.15 K, x2 = 0.6917 | 1477 | 11.88
313.15 K, x2 = 0.798 | 1509.9 | 11.22
313.15 K, x2 = 0.8964 | 1552.1 | 10.22
318.15 K, x2 = 0.2021 | 1409.1 | 15.91
318.15 K, x2 = 0.2937 | 1412.9 | 13.52
318.15 K, x2 = 0.408 | 1420.2 | 12.38
318.15 K, x2 = 0.5013 | 1428.8 | 11.66
318.15 K, x2 = 0.6019 | 1443.7 | 11.17
318.15 K, x2 = 0.6917 | 1465.7 | 10.76
318.15 K, x2 = 0.798 | 1498.5 | 10.07
318.15 K, x2 = 0.8964 | 1540.6 | 8.97
323.15 K, x2 = 0.2937 | 1402 | 11.94
323.15 K, x2 = 0.5013 | 1417.9 | 10.58
323.15 K, x2 = 0.6019 | 1432.7 | 10.2
323.15 K, x2 = 0.6917 | 1454.6 | 9.84
323.15 K, x2 = 0.798 | 1487.2 | 9.13
323.15 K, x2 = 0.8964 | 1529.1 | 7.95
